According to US7192906B2, “Substituted pyrazole derivatives, production process thereof, and herbicide compositions containing the derivatives” (SDS Biotech K.K., priority 2001, dated 2007):

Tested on: Monochoria vaginalis
Experiment: Test Example 3 paddy field treatment
Type: in vivo
Settings: Table 6, paddy field treatment, active ingredient 1 kg per hectare, 21st day after dropping, index 0-5
Outline: (§1)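 Scoring used a 0–5 scale of herbicidal effect or phytotoxicity, from <10% to ≥90%, taken 21 days after treatment. Treatment was 1 kg a.i./ha as diluted wettable powder dripped onto 4 cm-deep flooded pots sown with the weeds, 10 days after transplanting two-leaf Koshihikari rice.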

Structure (SMILES)	Herbicidal activity MV
CNC(=O)C(Cn1cc(C)c(-c2ccc(C=NOC)cc2)n1)=NOC [Compound 111]	5 (herbicidal effect of not less than 90%, or phytotoxicity of 90% or more)
CON=C(Cn1cc(C)c(-c2ccccc2)n1)C(=O)N1CCCC1 [Compound 118]	4 (herbicidal effect of not less than 70% and less than 90%, or phytotoxicity of 70% or more and less than 90%)
CON=C(Cn1cc(C)c(-c2ccccc2)n1)C(=O)N1CCOCC1 [Compound 120]	4 (herbicidal effect of not less than 70% and less than 90%, or phytotoxicity of 70% or more and less than 90%)

Tested on: Echinochloa crusgalli
Experiment: Test Example 3 paddy field treatment
Type: in vivo
Settings: Table 6, paddy field treatment, active ingredient 1 kg per hectare, 21st day after dropping, index 0-5
Outline: as §1

Structure (SMILES)	Herbicidal activity EC
CNC(=O)C(Cn1cc(C)c(-c2ccc(C=NOC)cc2)n1)=NOC [Compound 111]	5 (herbicidal effect of not less than 90%, or phytotoxicity of 90% or more)
CON=C(Cn1cc(C)c(-c2ccccc2)n1)C(=O)N1CCCC1 [Compound 118]	3 (herbicidal effect of not less than 50% and less than 70%, or phytotoxicity of 50% or more and less than 70%)
CON=C(Cn1cc(C)c(-c2ccccc2)n1)C(=O)N1CCOCC1 [Compound 120]	3 (herbicidal effect of not less than 50% and less than 70%, or phytotoxicity of 50% or more and less than 70%)

Tested on: Scirpus juncoides
Experiment: Test Example 3 paddy field treatment
Type: in vivo
Settings: Table 6, paddy field treatment, active ingredient 1 kg per hectare, 21st day after dropping, index 0-5
Outline: as §1

Structure (SMILES)	Herbicidal activity SJ
CNC(=O)C(Cn1cc(C)c(-c2ccc(C=NOC)cc2)n1)=NOC [Compound 111]	5 (herbicidal effect of not less than 90%, or phytotoxicity of 90% or more)
CON=C(Cn1cc(C)c(-c2ccccc2)n1)C(=O)N1CCCC1 [Compound 118]	4 (herbicidal effect of not less than 70% and less than 90%, or phytotoxicity of 70% or more and less than 90%)
CON=C(Cn1cc(C)c(-c2ccccc2)n1)C(=O)N1CCOCC1 [Compound 120]	3 (herbicidal effect of not less than 50% and less than 70%, or phytotoxicity of 50% or more and less than 70%)

Tested on: Ammannia multiflora
Experiment: Test Example 3 paddy field treatment
Type: in vivo
Settings: Table 6, paddy field treatment, active ingredient 1 kg per hectare, 21st day after dropping, index 0-5
Outline: as §1

Structure (SMILES)	Herbicidal activity AM
CNC(=O)C(Cn1cc(C)c(-c2ccc(C=NOC)cc2)n1)=NOC [Compound 111]	5 (herbicidal effect of not less than 90%, or phytotoxicity of 90% or more)
CON=C(Cn1cc(C)c(-c2ccccc2)n1)C(=O)N1CCCC1 [Compound 118]	4 (herbicidal effect of not less than 70% and less than 90%, or phytotoxicity of 70% or more and less than 90%)
CON=C(Cn1cc(C)c(-c2ccccc2)n1)C(=O)N1CCOCC1 [Compound 120]	4 (herbicidal effect of not less than 70% and less than 90%, or phytotoxicity of 70% or more and less than 90%)

Tested on: wheat (Triticum aestivum)
Experiment: Test Example 1 upland field foliage treatment, crop phytotoxicity
Type: in vivo
Settings: Table 4, upland field foliage treatment, index 0-5
Outline: (§2)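 A leaf-surface application at an active-ingredient rate of 1 kg per hectare was made to 14-day-old plants in upland soil. Evaluation followed 21 days later using a six-grade scale, where grade 5 means at least 90% kill or phytotoxicity.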

Structure (SMILES)	Herbicidal activity (phytotoxicity) TA: Wheat (Triticum aestivum)
CNC(=O)C(Cn1cc(C)c(-c2ccc(C=NOC)cc2)n1)=NOC [Compound 111]	0 (herbicidal effect of not less than 0% and less than 10%, or phytotoxicity of 0% or more and less than 10%)
CON=C(Cn1cc(C)c(-c2ccccc2)n1)C(=O)N1CCCC1 [Compound 118]	0 (herbicidal effect of not less than 0% and less than 10%, or phytotoxicity of 0% or more and less than 10%)
CON=C(Cn1cc(C)c(-c2ccccc2)n1)C(=O)N1CCOCC1 [Compound 120]	0 (herbicidal effect of not less than 0% and less than 10%, or phytotoxicity of 0% or more and less than 10%)

Tested on: soybean (Glycine max)
Experiment: as above
Type: in vivo
Settings: Table 4, upland field foliage treatment, index 0-5
Outline: as §2

Structure (SMILES)	Herbicidal activity (phytotoxicity) GM: Soybean (Glycine max)
CNC(=O)C(Cn1cc(C)c(-c2ccc(C=NOC)cc2)n1)=NOC [Compound 111]	0 (herbicidal effect of not less than 0% and less than 10%, or phytotoxicity of 0% or more and less than 10%)
CON=C(Cn1cc(C)c(-c2ccccc2)n1)C(=O)N1CCCC1 [Compound 118]	0 (herbicidal effect of not less than 0% and less than 10%, or phytotoxicity of 0% or more and less than 10%)
CON=C(Cn1cc(C)c(-c2ccccc2)n1)C(=O)N1CCOCC1 [Compound 120]	0 (herbicidal effect of not less than 0% and less than 10%, or phytotoxicity of 0% or more and less than 10%)

Tested on: Rice (Oryza sativa)
Experiment: Test Example 3 paddy field treatment, crop phytotoxicity
Type: in vivo
Settings: Table 6, paddy field treatment, transplanted rice, active ingredient 1 kg per hectare, 21st day after dropping, index 0-5
Outline: as §1

Structure (SMILES)	Herbicidal activity (phytotoxicity) OS
CNC(=O)C(Cn1cc(C)c(-c2ccc(C=NOC)cc2)n1)=NOC [Compound 111]	0 (herbicidal effect of not less than 0% and less than 10%, or phytotoxicity of 0% or more and less than 10%)
CON=C(Cn1cc(C)c(-c2ccccc2)n1)C(=O)N1CCCC1 [Compound 118]	0 (herbicidal effect of not less than 0% and less than 10%, or phytotoxicity of 0% or more and less than 10%)
CON=C(Cn1cc(C)c(-c2ccccc2)n1)C(=O)N1CCOCC1 [Compound 120]	0 (herbicidal effect of not less than 0% and less than 10%, or phytotoxicity of 0% or more and less than 10%)

Tested on: Digitaria adscendens
Experiment: Test Example 2 upland soil treatment
Type: in vivo
Settings: Table 5, upland soil treatment, index 0-5
Outline: (§3)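 Dose of 1 kg active ingredient per hectare, given as diluted wettable powder to the soil surface the day after sowing in upland soil (~1 cm cover). Effect rated 21 days on: 5 for ≥90%, 4 for 70–<90%, down to 0 for <10%.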

Structure (SMILES)	Herbicidal activity DA: Digitaria adscendens
CNC(=O)C(Cn1cc(C)c(-c2ccc(C=NOC)cc2)n1)=NOC [Compound 111]	4 (herbicidal effect of not less than 70% and less than 90%, or phytotoxicity of 70% or more and less than 90%)
CON=C(Cn1cc(C)c(-c2ccccc2)n1)C(=O)N1CCCC1 [Compound 118]	3 (herbicidal effect of not less than 50% and less than 70%, or phytotoxicity of 50% or more and less than 70%)
CON=C(Cn1cc(C)c(-c2ccccc2)n1)C(=O)N1CCOCC1 [Compound 120]	4 (herbicidal effect of not less than 70% and less than 90%, or phytotoxicity of 70% or more and less than 90%)

Tested on: Setaria viridis
Experiment: Test Example 2 upland soil treatment
Type: in vivo
Settings: Table 5, upland soil treatment, index 0-5
Outline: as §3

Structure (SMILES)	Herbicidal activity SV: Setaria viridis
CNC(=O)C(Cn1cc(C)c(-c2ccc(C=NOC)cc2)n1)=NOC [Compound 111]	4 (herbicidal effect of not less than 70% and less than 90%, or phytotoxicity of 70% or more and less than 90%)
CON=C(Cn1cc(C)c(-c2ccccc2)n1)C(=O)N1CCCC1 [Compound 118]	3 (herbicidal effect of not less than 50% and less than 70%, or phytotoxicity of 50% or more and less than 70%)
CON=C(Cn1cc(C)c(-c2ccccc2)n1)C(=O)N1CCOCC1 [Compound 120]	3 (herbicidal effect of not less than 50% and less than 70%, or phytotoxicity of 50% or more and less than 70%)

Tested on: Stellaria media
Experiment: Test Example 2 upland soil treatment
Type: in vivo
Settings: Table 5, upland soil treatment, index 0-5
Outline: as §3

Structure (SMILES)	Herbicidal activity SM: Stellaria media
CNC(=O)C(Cn1cc(C)c(-c2ccc(C=NOC)cc2)n1)=NOC [Compound 111]	5 (herbicidal effect of not less than 90%, or phytotoxicity of 90% or more)
CON=C(Cn1cc(C)c(-c2ccccc2)n1)C(=O)N1CCCC1 [Compound 118]	4 (herbicidal effect of not less than 70% and less than 90%, or phytotoxicity of 70% or more and less than 90%)
CON=C(Cn1cc(C)c(-c2ccccc2)n1)C(=O)N1CCOCC1 [Compound 120]	4 (herbicidal effect of not less than 70% and less than 90%, or phytotoxicity of 70% or more and less than 90%)

Tested on: Chenopodium album
Experiment: Test Example 2 upland soil treatment
Type: in vivo
Settings: Table 5, upland soil treatment, index 0-5
Outline: as §3

Structure (SMILES)	Herbicidal activity CA: Chenopodium album
CNC(=O)C(Cn1cc(C)c(-c2ccc(C=NOC)cc2)n1)=NOC [Compound 111]	5 (herbicidal effect of not less than 90%, or phytotoxicity of 90% or more)
CON=C(Cn1cc(C)c(-c2ccccc2)n1)C(=O)N1CCCC1 [Compound 118]	4 (herbicidal effect of not less than 70% and less than 90%, or phytotoxicity of 70% or more and less than 90%)
CON=C(Cn1cc(C)c(-c2ccccc2)n1)C(=O)N1CCOCC1 [Compound 120]	4 (herbicidal effect of not less than 70% and less than 90%, or phytotoxicity of 70% or more and less than 90%)

Tested on: Digitaria adscendens
Experiment: Test Example 1 upland field foliage treatment
Type: in vivo
Settings: Table 4, upland field foliage treatment, index 0-5
Outline: as §2

Structure (SMILES)	Herbicidal activity DA: Digitaria adscendens
CNC(=O)C(Cn1cc(C)c(-c2ccc(C=NOC)cc2)n1)=NOC [Compound 111]	4 (herbicidal effect of not less than 70% and less than 90%, or phytotoxicity of 70% or more and less than 90%)
CON=C(Cn1cc(C)c(-c2ccccc2)n1)C(=O)N1CCCC1 [Compound 118]	4 (herbicidal effect of not less than 70% and less than 90%, or phytotoxicity of 70% or more and less than 90%)
CON=C(Cn1cc(C)c(-c2ccccc2)n1)C(=O)N1CCOCC1 [Compound 120]	4 (herbicidal effect of not less than 70% and less than 90%, or phytotoxicity of 70% or more and less than 90%)

Tested on: Setaria viridis
Experiment: Test Example 1 upland field foliage treatment
Type: in vivo
Settings: Table 4, upland field foliage treatment, index 0-5
Outline: as §2

Structure (SMILES)	Herbicidal activity SV: Setaria viridis
CNC(=O)C(Cn1cc(C)c(-c2ccc(C=NOC)cc2)n1)=NOC [Compound 111]	4 (herbicidal effect of not less than 70% and less than 90%, or phytotoxicity of 70% or more and less than 90%)
CON=C(Cn1cc(C)c(-c2ccccc2)n1)C(=O)N1CCCC1 [Compound 118]	3 (herbicidal effect of not less than 50% and less than 70%, or phytotoxicity of 50% or more and less than 70%)
CON=C(Cn1cc(C)c(-c2ccccc2)n1)C(=O)N1CCOCC1 [Compound 120]	4 (herbicidal effect of not less than 70% and less than 90%, or phytotoxicity of 70% or more and less than 90%)

Tested on: Stellaria media
Experiment: Test Example 1 upland field foliage treatment
Type: in vivo
Settings: Table 4, upland field foliage treatment, index 0-5
Outline: as §2

Structure (SMILES)	Herbicidal activity SM: Stellaria media
CNC(=O)C(Cn1cc(C)c(-c2ccc(C=NOC)cc2)n1)=NOC [Compound 111]	5 (herbicidal effect of not less than 90%, or phytotoxicity of 90% or more)
CON=C(Cn1cc(C)c(-c2ccccc2)n1)C(=O)N1CCCC1 [Compound 118]	5 (herbicidal effect of not less than 90%, or phytotoxicity of 90% or more)
CON=C(Cn1cc(C)c(-c2ccccc2)n1)C(=O)N1CCOCC1 [Compound 120]	4 (herbicidal effect of not less than 70% and less than 90%, or phytotoxicity of 70% or more and less than 90%)

Tested on: Chenopodium album
Experiment: Test Example 1 upland field foliage treatment
Type: in vivo
Settings: Table 4, upland field foliage treatment, index 0-5
Outline: as §2

Structure (SMILES)	Herbicidal activity CA: Chenopodium album
CNC(=O)C(Cn1cc(C)c(-c2ccc(C=NOC)cc2)n1)=NOC [Compound 111]	5 (herbicidal effect of not less than 90%, or phytotoxicity of 90% or more)
CON=C(Cn1cc(C)c(-c2ccccc2)n1)C(=O)N1CCCC1 [Compound 118]	4 (herbicidal effect of not less than 70% and less than 90%, or phytotoxicity of 70% or more and less than 90%)
CON=C(Cn1cc(C)c(-c2ccccc2)n1)C(=O)N1CCOCC1 [Compound 120]	5 (herbicidal effect of not less than 90%, or phytotoxicity of 90% or more)

Tested on: wheat (Triticum aestivum)
Experiment: Test Example 2 upland soil treatment, crop phytotoxicity
Type: in vivo
Settings: Table 5, upland soil treatment, index 0-5
Outline: as §3

Structure (SMILES)	Herbicidal activity (phytotoxicity) TA: Wheat (Triticum aestivum)
CNC(=O)C(Cn1cc(C)c(-c2ccc(C=NOC)cc2)n1)=NOC [Compound 111]	0 (herbicidal effect of not less than 0% and less than 10%, or phytotoxicity of 0% or more and less than 10%)
CON=C(Cn1cc(C)c(-c2ccccc2)n1)C(=O)N1CCCC1 [Compound 118]	0 (herbicidal effect of not less than 0% and less than 10%, or phytotoxicity of 0% or more and less than 10%)
CON=C(Cn1cc(C)c(-c2ccccc2)n1)C(=O)N1CCOCC1 [Compound 120]	0 (herbicidal effect of not less than 0% and less than 10%, or phytotoxicity of 0% or more and less than 10%)

Tested on: soybean (Glycine max)
Experiment: as above
Type: in vivo
Settings: Table 5, upland soil treatment, index 0-5
Outline: as §3

Structure (SMILES)	Herbicidal activity (phytotoxicity) GM: Soybean (Glycine max)
CNC(=O)C(Cn1cc(C)c(-c2ccc(C=NOC)cc2)n1)=NOC [Compound 111]	0 (herbicidal effect of not less than 0% and less than 10%, or phytotoxicity of 0% or more and less than 10%)
CON=C(Cn1cc(C)c(-c2ccccc2)n1)C(=O)N1CCCC1 [Compound 118]	0 (herbicidal effect of not less than 0% and less than 10%, or phytotoxicity of 0% or more and less than 10%)
CON=C(Cn1cc(C)c(-c2ccccc2)n1)C(=O)N1CCOCC1 [Compound 120]	0 (herbicidal effect of not less than 0% and less than 10%, or phytotoxicity of 0% or more and less than 10%)
